Key:
barnyard grass [1] = assay: Test Example 3: herbicidal effect by foliage application, Wagner pot (Table 18, symbol H); assay type: in vivo, barnyard grass (Echinochloa crus-galli)
How it was run: (§1)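 Plants were sown in alluvial soil held under 0.1–0.5 cm standing water and grown 14 days in a greenhouse at 25–30 °C. An emulsifiable formulation, water-diluted to the set dose, was then sprayed onto the foliage, and effects were scored three weeks later using previously defined criteria.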

Chinese sprangletop = assay: Test Example 3: herbicidal effect by foliage application, Wagner pot (Table 18, symbol D); assay type: in vivo, chinese sprangletop (Leptochloa chinensis)
How it was run: as §1

rice flat sedge = assay: Test Example 3: herbicidal effect by foliage application, Wagner pot (Table 18, symbol E); assay type: in vivo, rice flat sedge (Cyperus iria)
How it was run: as §1

southern crabgrass [2] = assay: Test Example 4: herbicidal effect by soil treatment (Table 19, symbol F); assay type: in vivo, southern crabgrass (Digitaria ciliaris); conditions: amount of applied herbicide 320 g/ha
How it was run: (§2)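 Step 1: sow seeds in sterilized diluvial soil, cover ~1.5 cm. Step 2: spray diluted emulsion onto soil surface at predetermined rate. Step 3: greenhouse, 25–30° C, three weeks. Step 4: grade effect on each plant by earlier criteria.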

green foxtail [3] = assay: Test Example 4: herbicidal effect by soil treatment (Table 19, symbol G); assay type: in vivo, green foxtail (Setaria viridis); conditions: amount of applied herbicide 320 g/ha
How it was run: as §2

barnyard grass [4] = assay: Test Example 4: herbicidal effect by soil treatment (Table 19, symbol H); assay type: in vivo, barnyard grass (Echinochloa crus-galli); conditions: amount of applied herbicide 320 g/ha
How it was run: as §2

wild oat [5] = assay: Test Example 4: herbicidal effect by soil treatment (Table 19, symbol I); assay type: in vivo, wild oat (Avena fatua); conditions: amount of applied herbicide 320 g/ha
How it was run: as §2

blackgrass [6] = assay: Test Example 4: herbicidal effect by soil treatment (Table 19, symbol J); assay type: in vivo, blackgrass (Alopecurus myosuroides); conditions: amount of applied herbicide 320 g/ha
How it was run: as §2

Italian ryegrass [7] = assay: Test Example 4: herbicidal effect by soil treatment (Table 19, symbol K); assay type: in vivo, Italian ryegrass (Lolium multiflorum); conditions: amount of applied herbicide 320 g/ha
How it was run: as §2

windgrass [8] = assay: Test Example 4: herbicidal effect by soil treatment (Table 19, symbol L); assay type: in vivo, windgrass (Apera spica-venti); conditions: amount of applied herbicide 320 g/ha
How it was run: as §2

velvetleaf [9] = assay: Test Example 4: herbicidal effect by soil treatment (Table 19, symbol M); assay type: in vivo, velvetleaf (Abutilon theophrasti); conditions: amount of applied herbicide 320 g/ha
How it was run: as §2

redroot pigweed [10] = assay: Test Example 4: herbicidal effect by soil treatment (Table 19, symbol N); assay type: in vivo, redroot pigweed (Amaranthus retroflexus); conditions: amount of applied herbicide 320 g/ha
How it was run: as §2

lambsquarters [11] = assay: Test Example 4: herbicidal effect by soil treatment (Table 19, symbol O); assay type: in vivo, lambsquarters (Chenopodium album); conditions: amount of applied herbicide 320 g/ha
How it was run: as §2

chickweed [12] = assay: Test Example 4: herbicidal effect by soil treatment (Table 19, symbol P); assay type: in vivo, common chickweed (Stellaria media); conditions: amount of applied herbicide 320 g/ha
How it was run: as §2

persian speedwell [13] = assay: Test Example 4: herbicidal effect by soil treatment (Table 19, symbol R); assay type: in vivo, Persian speedwell (Veronica persica); conditions: amount of applied herbicide 320 g/ha
How it was run: as §2

southern crabgrass [14] = assay: Test Example 5: herbicidal effect by foliage application, plastic box (Table 20, symbol F); assay type: in vivo, southern crabgrass (Digitaria ciliaris); conditions: 320 g/ha
How it was run: (§3)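 Foliar spray test: emulsion formulation diluted in water to a set application rate, sprayed onto 14-day-old plants raised in diluvial soil at 25° C to 30° C under glass. Both herbicidal effect and crop effect rated visually three weeks later.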

green foxtail [15] = assay: Test Example 5: herbicidal effect by foliage application, plastic box (Table 20, symbol G); assay type: in vivo, green foxtail (Setaria viridis); conditions: 320 g/ha
How it was run: as §3

barnyard grass [16] = assay: Test Example 5: herbicidal effect by foliage application, plastic box (Table 20, symbol H); assay type: in vivo, barnyard grass (Echinochloa crus-galli); conditions: 320 g/ha
How it was run: as §3

wild oat [17] = assay: Test Example 5: herbicidal effect by foliage application, plastic box (Table 20, symbol I); assay type: in vivo, wild oat (Avena fatua); conditions: 320 g/ha
How it was run: as §3

blackgrass [18] = assay: Test Example 5: herbicidal effect by foliage application, plastic box (Table 20, symbol J); assay type: in vivo, blackgrass (Alopecurus myosuroides); conditions: 320 g/ha
How it was run: as §3

Italian ryegrass [19] = assay: Test Example 5: herbicidal effect by foliage application, plastic box (Table 20, symbol K); assay type: in vivo, Italian ryegrass (Lolium multiflorum); conditions: 320 g/ha
How it was run: as §3

windgrass [20] = assay: Test Example 5: herbicidal effect by foliage application, plastic box (Table 20, symbol L); assay type: in vivo, windgrass (Apera spica-venti); conditions: 320 g/ha
How it was run: as §3

velvetleaf [21] = assay: Test Example 5: herbicidal effect by foliage application, plastic box (Table 20, symbol M); assay type: in vivo, velvetleaf (Abutilon theophrasti); conditions: 320 g/ha
How it was run: as §3

redroot pigweed [22] = assay: Test Example 5: herbicidal effect by foliage application, plastic box (Table 20, symbol N); assay type: in vivo, redroot pigweed (Amaranthus retroflexus); conditions: 320 g/ha
How it was run: as §3

lambsquarters [23] = assay: Test Example 5: herbicidal effect by foliage application, plastic box (Table 20, symbol O); assay type: in vivo, lambsquarters (Chenopodium album); conditions: 320 g/ha
How it was run: as §3

chickweed [24] = assay: Test Example 5: herbicidal effect by foliage application, plastic box (Table 20, symbol P); assay type: in vivo, common chickweed (Stellaria media); conditions: 320 g/ha
How it was run: as §3

persian speedwell [25] = assay: Test Example 5: herbicidal effect by foliage application, plastic box (Table 20, symbol R); assay type: in vivo, Persian speedwell (Veronica persica); conditions: 320 g/ha
How it was run: as §3

[26] = amount of applied herbicide 320 g/ha
[27] = foliage application, three weeks after application
[28] = foliage application after 14-day growth, evaluated three weeks after application

CCc1nn(C)c(=O)c(-c2c(-c3ccc(Cl)cc3)sc3ccc(F)cc23)c1O [2-408]
herbicidal effect on H: barnyard grass (barnyard grass [1]; [26]): 4 (Herbicidal rate of 70% or more and less than 90%)
herbicidal effect on D: Chinese sprangletop (Chinese sprangletop; [26]): 4 (Herbicidal rate of 70% or more and less than 90%)
herbicidal effect on E: rice flat sedge (rice flat sedge; [26]): 5 (Herbicidal rate of 90% or more (almost completely withered))
herbicidal effect, F: southern crabgrass (southern crabgrass [2]): 0 (Herbicidal rate of 5% or less (almost no effect))
herbicidal effect, G: green foxtail (green foxtail [3]): 0 (Herbicidal rate of 5% or less (almost no effect))
herbicidal effect, H: barnyard grass (barnyard grass [4]): 0 (Herbicidal rate of 5% or less (almost no effect))
herbicidal effect, I: wild oat (wild oat [5]): 0 (Herbicidal rate of 5% or less (almost no effect))
herbicidal effect, J: blackgrass (blackgrass [6]): 0 (Herbicidal rate of 5% or less (almost no effect))
herbicidal effect, K: Italian ryegrass (Italian ryegrass [7]): 0 (Herbicidal rate of 5% or less (almost no effect))
herbicidal effect, L: windgrass (windgrass [8]): 0 (Herbicidal rate of 5% or less (almost no effect))
herbicidal effect, M: velvetleaf (velvetleaf [9]): 1 (Herbicidal rate of 5% or more and less than 20%)
herbicidal effect, N: redroot pigweed (redroot pigweed [10]): 4 (Herbicidal rate of 70% or more and less than 90%)
herbicidal effect, O: lambsquarters (lambsquarters [11]): 3 (Herbicidal rate of 40% or more and less than 70%)
herbicidal effect, P: chickweed (chickweed [12]): 0 (Herbicidal rate of 5% or less (almost no effect))
herbicidal effect, R: persian speedwell (persian speedwell [13]): 0 (Herbicidal rate of 5% or less (almost no effect))
F: southern crabgrass, herbicidal effect grade (southern crabgrass [14]; [27]): 4 (Herbicidal rate of 70% or more and less than 90%)
G: green foxtail, herbicidal effect grade (green foxtail [15]; [27]): 5 (Herbicidal rate of 90% or more (almost completely withered))
H: barnyard grass, herbicidal effect grade (barnyard grass [16]; [27]): 3 (Herbicidal rate of 40% or more and less than 70%)
I: wild oat, herbicidal effect grade (wild oat [17]; [27]): 1 (Herbicidal rate of 5% or more and less than 20%)
J: blackgrass, herbicidal effect grade (blackgrass [18]; [27]): 0 (Herbicidal rate of 5% or less (almost no effect))
K: Italian ryegrass, herbicidal effect grade (Italian ryegrass [19]; [27]): 3 (Herbicidal rate of 40% or more and less than 70%)
L: windgrass, herbicidal effect grade (windgrass [20]; [27]): 0 (Herbicidal rate of 5% or less (almost no effect))
M: velvetleaf, herbicidal effect grade (velvetleaf [21]; [27]): 4 (Herbicidal rate of 70% or more and less than 90%)
N: redroot pigweed, herbicidal effect grade (redroot pigweed [22]; [27]): 5 (Herbicidal rate of 90% or more (almost completely withered))
O: lambsquarters, herbicidal effect grade (lambsquarters [23]; [27]): 5 (Herbicidal rate of 90% or more (almost completely withered))
P: chickweed, herbicidal effect grade (chickweed [24]; [27]): 5 (Herbicidal rate of 90% or more (almost completely withered))
R: persian speedwell, herbicidal effect grade (persian speedwell [25]; [27]): 5 (Herbicidal rate of 90% or more (almost completely withered))

CCCC(=O)Oc1c(C)nn(C)c(=O)c1-c1c(-c2ccccc2F)sc2c(Cl)cccc12 [4-059]
herbicidal effect on barnyard grass (H) (barnyard grass [1]; 320 g/ha): 4 (Herbicidal rate of 70% or more and less than 90%)
herbicidal effect on Chinese sprangletop (D) (Chinese sprangletop; 320 g/ha): 4 (Herbicidal rate of 70% or more and less than 90%)
herbicidal effect on rice flat sedge (E) (rice flat sedge; 320 g/ha): 4 (Herbicidal rate of 70% or more and less than 90%)
Herbicidal effect by soil treatment, F: southern crabgrass (southern crabgrass [2]): 0 (Herbicidal rate of 5% or less (almost no effect))
Herbicidal effect by soil treatment, G: green foxtail (green foxtail [3]): 0 (Herbicidal rate of 5% or less (almost no effect))
Herbicidal effect by soil treatment, H: barnyard grass (barnyard grass [4]): 0 (Herbicidal rate of 5% or less (almost no effect))
Herbicidal effect by soil treatment, I: wild oat (wild oat [5]): 0 (Herbicidal rate of 5% or less (almost no effect))
Herbicidal effect by soil treatment, J: blackgrass (blackgrass [6]): 0 (Herbicidal rate of 5% or less (almost no effect))
Herbicidal effect by soil treatment, K: Italian ryegrass (Italian ryegrass [7]): 0 (Herbicidal rate of 5% or less (almost no effect))
Herbicidal effect by soil treatment, L: windgrass (windgrass [8]): 0 (Herbicidal rate of 5% or less (almost no effect))
Herbicidal effect by soil treatment, M: velvetleaf (velvetleaf [9]): 0 (Herbicidal rate of 5% or less (almost no effect))
Herbicidal effect by soil treatment, N: redroot pigweed (redroot pigweed [10]): 0 (Herbicidal rate of 5% or less (almost no effect))
Herbicidal effect by soil treatment, O: lambsquarters (lambsquarters [11]): 0 (Herbicidal rate of 5% or less (almost no effect))
Herbicidal effect by soil treatment, P: chickweed (chickweed [12]): 4 (Herbicidal rate of 70% or more and less than 90%)
Herbicidal effect by soil treatment, R: persian speedwell (persian speedwell [13]): 4 (Herbicidal rate of 70% or more and less than 90%)
herbicidal effect on F: southern crabgrass (evaluation grade 0-5) (southern crabgrass [14]; [28]): 0 (Herbicidal rate of 5% or less (almost no effect))
herbicidal effect on G: green foxtail (evaluation grade 0-5) (green foxtail [15]; [28]): 0 (Herbicidal rate of 5% or less (almost no effect))
herbicidal effect on H: barnyard grass (evaluation grade 0-5) (barnyard grass [16]; [28]): 0 (Herbicidal rate of 5% or less (almost no effect))
herbicidal effect on I: wild oat (evaluation grade 0-5) (wild oat [17]; [28]): 1 (Herbicidal rate of 5% or more and less than 20%)
herbicidal effect on J: blackgrass (evaluation grade 0-5) (blackgrass [18]; [28]): 0 (Herbicidal rate of 5% or less (almost no effect))
herbicidal effect on K: Italian ryegrass (evaluation grade 0-5) (Italian ryegrass [19]; [28]): 0 (Herbicidal rate of 5% or less (almost no effect))
herbicidal effect on L: windgrass (evaluation grade 0-5) (windgrass [20]; [28]): 0 (Herbicidal rate of 5% or less (almost no effect))
herbicidal effect on M: velvetleaf (evaluation grade 0-5) (velvetleaf [21]; [28]): 3 (Herbicidal rate of 40% or more and less than 70%)
herbicidal effect on N: redroot pigweed (evaluation grade 0-5) (redroot pigweed [22]; [28]): 3 (Herbicidal rate of 40% or more and less than 70%)
herbicidal effect on O: lambsquarters (evaluation grade 0-5) (lambsquarters [23]; [28]): 2 (Herbicidal rate of 20% or more and less than 40%)
herbicidal effect on P: chickweed (evaluation grade 0-5) (chickweed [24]; [28]): 5 (Herbicidal rate of 90% or more (almost completely withered))
herbicidal effect on R: persian speedwell (evaluation grade 0-5) (persian speedwell [25]; [28]): 4 (Herbicidal rate of 70% or more and less than 90%)

From patent US20230085307A1, “PYRIDAZINONE COMPOUND AND HERBICIDE” (NISSAN CHEMICAL CORPORATION, priority 2019, published 2023)
